Source: patent US10322140B2, “Preparation and use of 7a-heterocycle substituted-6,6-difluoro bicyclic himbacine derivatives as PAR-1 receptor antagonists” (Merck Sharp & Dohme Corp., priority 2013, dated 2019)

Experiments:
PAR-1 receptor = PAR-1 receptor (Homo sapiens (Human), UniProt P25116); assay: PAR-1 FLIPR Assay; format: cell-based; conditions: HEK 293 cells, calcium signal after PAR-1 selective receptor-activating peptide at EC80
Method: This assay measures the potency of the inventive compounds as PAR-1 receptor antagonists.
Frozen HEK 293 Cells were plated in 384-well PDL coated plates at 12000 cells/well in 50 uL of DMEM media containing 10% FBS, pen/strep/L-Glutamine and non-essential amino acids, incubated overnight at 37° C./5% CO2. Media was then removed from the cells, incubated with 33 uL of Calcium-5 dye in assay buffer (Hank's buffer containing 20 mM HEPES, 0.04% Chaps and 2.5 mM Probenecid) for 60 minutes at 37° C. 2 uL of varying concentrations of compound in 40% DMSO in assay buffer (final DMSO concentration is […]) were then added to the cells and incubated at 25° C. for 30 minutes. The plates were added to the FLIPR Tetra®, the device added 5 μL of PAR-1 selective receptor-activating peptide (sequence Ala-parafluoroPhe-Arg-Cha-Cit-Try-NH2, prepared in water) at a concentration equal to the effective concentration that achieved 80% activation of signaling on the day of the experiment. The range of peptide was from 1.5-3 μM. The final volume is 40 uL/well, with 2% DMSO. The FLIPR was read at an excitation wavelength of 480 nm and an emission wavelength of 535 nm, and performed 60 scans over a 1-2 min reading time. The data were analyzed by taking the peak signal over a portion of the range of the 60 scans and dividing this signal by the minimum signal for that same range. The data were expressed as percent inhibition of the maximum divided by the minimum signal achieved at 80% activation produced by the PAR1 activating peptide on the test day. The compounds of Examples 1-13 were tested in the assay described above and the data collected for these compounds is provided.

CYP3A4 = CYP3A4 (Homo sapiens (Human), UniProt P08684); assay: CYP MUX (3A4) RI; format: in vitro ADME; conditions: human liver microsomes, substrate testosterone, 37° C. 10 min
Source text: This assay measures inhibition of CYP3A4 by a compound. Cytochromes P450 (CYPs) constitute a superfamily of heme-containing enzymes that recognize and metabolize a large number structurally diverse xenobiotics in the human body. CYP3A4 constitutes the largest portion of CYP enzymes in the liver that accounts for the metabolism of almost 50% of all drugs. This assay is used to evaluate the potential of a compound for developing DDIs. (Clarke, S. E.; Jones B. C. Drug-Drug Interactions, New York: Marcel Dekker; 2002. pp. 53-88).
Compound dilutions and assay-ready plates were prepared on a TTP Labtech mosquito® HTS. Assay conduction was fully automated on a customized Screening Platform from Caliper (now PerkinElmer) containing a Mitsubishi robotic plate handler, Liconic incubators, a Caliper Zephyr® liquid handling workstation equipped with temperature-controlled deck positions, a Biotek MultiFlo™ dispenser and an Agilent PlateLoc heat sealer. Assay plates were Corning Costar® 384 well PP plates. High throughput mass spectrometric readout was performed on a RapidFire® 300 system coupled to an AB Sciex API 4000™ triple quadrupole device. CYP isoform 3A4 was incubated in a separate reaction of 50 μL final volume. 25 μL of HLM (human liver microsomes, BD UltraPool™ 150, 0.25 mg/mL final concentration) and the respective substrate, testosterone (75 μM) for 3A4, in potassium phosphate buffer (100 mM, pH=7.4) were added to 250 nL of stamped compound solution (10 mM in DMSO). The reactions were started upon addition of 25 μL of a co-factor solution containing magnesium chloride (3.3 mM), glucose-6-phosphate (3.3 mM), glucose-6-phosphate dehydrogenase (1.4 units) and NADP (1 mM) in potassium phosphate buffer (100 mM, pH=7.4) and incubated on deck at 37° C. for 10 min. 8 μL of each reaction were transferred to the same readout plated filled with 48 μL of stop solution containing internal standards (concentration in final readout plate), 6-hydroxytestosterone-D7 (0.5 μM), 4′-hydroxydiclofenac-D4 (0.2 and dextrorphan-D3 (0.01 in acetonitrile with 0.5% formic acid. After heat sealing, plates were stored at −20° C. for at least 30 min, centrifuged and subjected directly to RapidFire®/MS analysis.

Chain of PAR-1 receptor (P25116 22-425): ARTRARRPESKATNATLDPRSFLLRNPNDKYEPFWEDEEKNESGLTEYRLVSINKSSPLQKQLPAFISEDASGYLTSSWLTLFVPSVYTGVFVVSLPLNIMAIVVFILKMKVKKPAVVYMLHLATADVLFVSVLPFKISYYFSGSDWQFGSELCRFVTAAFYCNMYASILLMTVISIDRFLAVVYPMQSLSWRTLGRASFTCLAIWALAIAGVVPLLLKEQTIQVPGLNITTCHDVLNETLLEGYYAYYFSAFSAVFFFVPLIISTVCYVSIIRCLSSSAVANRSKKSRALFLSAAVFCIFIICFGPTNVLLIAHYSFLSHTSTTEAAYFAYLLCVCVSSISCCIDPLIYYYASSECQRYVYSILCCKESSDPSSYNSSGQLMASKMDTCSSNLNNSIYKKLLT
Chain of CYP3A4 (P08684 whole entry): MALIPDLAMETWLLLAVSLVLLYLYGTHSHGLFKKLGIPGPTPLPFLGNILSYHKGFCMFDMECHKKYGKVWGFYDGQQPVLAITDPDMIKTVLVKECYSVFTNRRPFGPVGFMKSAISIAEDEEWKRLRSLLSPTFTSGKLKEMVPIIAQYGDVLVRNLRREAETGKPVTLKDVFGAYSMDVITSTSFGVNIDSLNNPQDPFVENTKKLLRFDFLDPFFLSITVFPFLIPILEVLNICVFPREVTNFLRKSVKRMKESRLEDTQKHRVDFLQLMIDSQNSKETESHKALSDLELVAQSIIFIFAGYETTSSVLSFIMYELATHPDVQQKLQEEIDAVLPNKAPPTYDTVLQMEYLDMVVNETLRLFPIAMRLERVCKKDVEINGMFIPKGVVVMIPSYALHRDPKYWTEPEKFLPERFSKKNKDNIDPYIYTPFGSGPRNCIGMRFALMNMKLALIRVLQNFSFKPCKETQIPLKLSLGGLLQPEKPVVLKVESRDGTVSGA

Compound	IC50 (PAR-1 receptor)	IC50 (CYP3A4)
C[C@H]1OC(=O)[C@]2(c3cc(C(C)(C)C)[nH]n3)CC(F)(F)[C@@H](C)[C@H](/C=C/c3ccc(-c4ccccc4C#N)cn3)[C@H]12 [Example 9, 2-(6-((E)-2-((3R,3aS,4R,5S,7aR)-7a-(5-(tert-butyl)-1H-pyrazol-3-yl)-6,6-difluoro-3,5-dimethyl-1-oxooctahydroisobenzofuran-4-yl)vinyl)pyridin-3-yl)benzonitrile]	14.5 nM	
Cc1cccc(-c2ccc(/C=C/[C@@H]3[C@@H]4[C@@H](C)OC(=O)[C@]4(c4cc(C)n(C)n4)CC(F)(F)[C@H]3C)nc2)c1C#N [Example 11]	6.3 nM	17600 nM
C[C@H]1OC(=O)[C@]2(c3n[nH]c(=O)o3)CC(F)(F)[C@@H](C)[C@H](/C=C/c3ccc(-c4cccc(F)c4)cn3)[C@H]12 [Example 8, 5-((1R,3aR,6S,7R,7aS)-5,5-difluoro-7-((E)-2-(5-(3-fluorophenyl)pyridin-2-yl)vinyl)-1,6-dimethyl-3-oxooctahydroisobenzofuran-3a-yl)-1,3,4-oxadiazol-2(3H)-one]	28.7 nM	
C[C@H]1OC(=O)[C@]2(c3cc[nH]n3)CC(F)(F)[C@@H](C)[C@H](/C=C/c3ccc(-c4cccnc4C#N)cn3)[C@H]12 [Example 13, 6′-((E)-2-((3R,3aS,4R,5S,7aR)-6,6-difluoro-3,5-dimethyl-1-oxo-7a-(1H-pyrazol-3-yl)octahydroisobenzofuran-4-yl)vinyl)-[3,3′-bipyridine]-2-carbonitrile]	6.2 nM	8800 nM
Cc1cccc(-c2ccc(/C=C/[C@@H]3[C@@H]4[C@@H](C)OC(=O)[C@]4(c4nnc(-c5ccccc5)o4)CC(F)(F)[C@H]3C)nc2)c1C#N [Example 7]	5.01 nM	
C[C@H]1OC(=O)[C@]2(c3cc(C(C)(C)C)n(C)n3)CC(F)(F)[C@@H](C)[C@H](/C=C/c3ccc(-c4ccccc4C#N)cn3)[C@H]12 [Example 10, 2-(6-((E)-2-((3R,3aS,4R,5S,7aR)-7a-(5-(tert-butyl)-1-methyl-1H-pyrazol-3-yl)-6,6-difluoro-3,5-dimethyl-1-oxooctahydroisobenzofuran-4-yl)vinyl)pyridin-3-yl)benzonitrile]	25.3 nM	≥ 50000 nM
C[C@H]1OC(=O)[C@]2(c3n[nH]c(=O)o3)CC(F)(F)[C@@H](C)[C@H](/C=C/c3ccc(-c4ccccc4C#N)cn3)[C@H]12 [Example 1, 2-(6-((E)-2-((3R,3aS,4R,5S,7aR)-6,6-difluoro-3,5-dimethyl-1-oxo-7a-(5-oxo-4,5-dihydro-1,3,4-oxadiazol-2-yl)octahydroisobenzofuran-4-yl)vinyl)pyridin-3-yl)benzonitrile]	4.22 nM	21800 nM

Compounds with a lower IC50 (PAR-1 receptor), results first:

IC50 (PAR-1 receptor)	IC50 (CYP3A4)	Compound
1.22 nM	10400 nM	Cc1cccc(-c2ccc(/C=C/[C@@H]3[C@@H]4[C@@H](C)OC(=O)[C@]4(c4nnc(N)o4)CC(F)(F)[C@H]3C)nc2)c1C#N [Example 3, 2-(6-((E)-2-((3R,3aS,4R,5S,7aR)-7a-(5-amino-1,3,4-oxadiazol-2-yl)-6,6-difluoro-3,5-dimethyl-1-oxooctahydroisobenzofuran-4-yl)vinyl)pyridin-3-yl)-6-methylbenzonitrile]
3.08 nM	9900 nM	C[C@H]1OC(=O)[C@]2(c3nnc(N)o3)CC(F)(F)[C@@H](C)[C@H](/C=C/c3ccc(-c4ccccc4C#N)cn3)[C@H]12 [Example 4, 2-(6-((E)-2-((3R,3aS,4R,5S,7aR)-7a-(5-amino-1,3,4-oxadiazol-2-yl)-6,6-difluoro-3,5-dimethyl-1-oxooctahydroisobenzofuran-4-yl)vinyl)pyridin-3-yl)benzonitrile]
1.34 nM	22800 nM	Cc1cccc(-c2ccc(/C=C/[C@@H]3[C@@H]4[C@@H](C)OC(=O)[C@]4(c4n[nH]c(=O)o4)CC(F)(F)[C@H]3C)nc2)c1C#N [Example 2, 2-(6-((E)-2-((3R,3aS,4R,5S,7aR)-6,6-difluoro-3,5-dimethyl-1-oxo-7a-(5-oxo-4,5-dihydro-1,3,4-oxadiazol-2-yl)octahydroisobenzofuran-4-yl)vinyl)pyridin-3-yl)-6-methylbenzonitrile]
2.07 nM		Cc1cccc(-c2ccc(/C=C/[C@@H]3[C@@H]4[C@@H](C)OC(=O)[C@]4(c4nnc(C5CC5)o4)CC(F)(F)[C@H]3C)nc2)c1C#N [Example 6, 2-(6-((E)-2-((3R,3aS,4R,5S,7aR)-7a-(5-cyclopropyl-1,3,4-oxadiazol-2-yl)-6,6-difluoro-3,5-dimethyl-1-oxooctahydroisobenzofuran-4-yl)vinyl)pyridin-3-yl)-6-methylbenzonitrile]
2.45 nM	16900 nM	Cc1nnc([C@@]23CC(F)(F)[C@@H](C)[C@H](/C=C/c4ccc(-c5cccc(C)c5C#N)cn4)[C@@H]2[C@@H](C)OC3=O)o1 [Example 5, 2-(6-((E)-2-((3R,3aS,4R,5S,7aR)-6,6-difluoro-3,5-dimethyl-7a-(5-methyl-1,3,4-oxadiazol-2-yl)-1-oxooctahydroisobenzofuran-4-yl)vinyl)pyridin-3-yl)-6-methylbenzonitrile]
0.99 nM	2400 nM	C[C@H]1OC(=O)[C@]2(c3cc[nH]n3)CC(F)(F)[C@@H](C)[C@H](/C=C/c3ccc(-c4ccccc4C#N)cn3)[C@H]12 [Example 12, 2-(6-((E)-2-((3R,3aS,4R,5S,7aR)-6,6-difluoro-3,5-dimethyl-1-oxo-7a-(1H-pyrazol-3-yl)octa hydroisobenzofuran-4-yl)vinyl)pyridin-3-yl)benzonitrile]
